Consider 14 compounds from patent US20090036475A1, “Pyrazolyl-Pyrimidines as Potassium Channel Modulating Agents and Their Medical Use” (NEUROSEARCH A/S, priority 2006, published 2009).

In one data set the target is T1, small-conductance Ca2+-activated K+ channel, subtype 3 (SK3) (Homo sapiens, UniProt Q9UGI6).
T1 construct: expressed in transfected cells; host or cells: HEK293
Kind of data set: Whole-cell patch-clamp recording of SK3 current in HEK293 cells. It counts as cell-based. Conditions: hSK3 stably expressed in HEK293 cells, baseline current at −20 mV, free Ca2+ 300 nM, room temperature. The method, then:
The ionic current through small-conductance Ca^2+-activated K^+ channels (SK channels, subtype 3) is recorded using the whole-cell configuration of the patch-clamp technique.
The small-conductance Ca^2+-activated K^+ channel, subtype 3 (SK3) was cloned from human skeletal muscle and stably expressed in HEK293 cells.
Human SK3 (hSK3) was sub-cloned into the expression vector pNS3n, a customized vector derived from pcDNA3 (InVitrogen) to give the plasmid construct pNS3_hSK3. HEK293 tissue culture cells were grown in DMEM (Dulbecco's Modified Eagle Medium) supplemented with 10% FCS (foetal calf serum) at 37° C. in 5% CO2. […]
Experiments are carried out on one of several patch-clamp set-ups. […] Data are stored directly on the hard-disk and analysed by IGOR software (Wavemetrics, Lake Oswega, Oreg., USA).
The whole-cell configuration of the patch-clamp technique is applied. […] Cell capacitance is electronically compensated and the resistance between the pipette and the cell interior (the series resistance, Rs) is measured and compensated for. […]
The intracellular (pipette) solution has the following composition (in mM): 105 KCl, 45 KOH, 10 EGTA, 1.21 MgCl2, 7.63 CaCl2, and 10 HEPES (pH=7.2 with HCl). The calculated free concentration of Ca^2+ in this solution is 300 nM and that of Mg^2+ is 1 mM. […]
Active compounds are quantified by calculating the change in baseline current at −20 mV. […]
In the case of `Cc1cc(NC2CCCCC2)nc(-n2nc(C)cc2C)n1` [Compound A2, Cyclohexyl-[2-(3,5-dimethyl-pyrazol-1-yl)-6-methyl-pyrimidin-4-yl]-amine], the “SC100 (Stimulating Concentration required for increasing the baseline current by 100%)” value stood at 0.1 µM.

System in the next data set: not given
Test: not given
Conditions: not given
`Cc1cc(NCc2ccccc2)nc(-n2nc(C)cc2C)n1` [Compound A1, Benzyl-[2-(3,5-dimethyl-pyrazol-1-yl)-6-methyl-pyrimidin-4-yl]-amine]: the melting point fell in the range of 135.9 to 137.3 °C.

Compound `Cc1cc(C)n(-c2nccc(NC3CCCCC3)n2)n1` [Compound A5, Cyclohexyl-[2-(3,5-dimethyl-pyrazol-1-yl)-pyrimidin-4-yl]-amine] showed a melting point of 144.5 to 146.7 °C.

Turning to `Cc1cc(C)n(-c2ncc(Cl)c(NC3CCCCC3)n2)n1` [Compound A6, [5-Chloro-2-(3,5-dimethyl-pyrazol-1-yl)-pyrimidin-4-yl]-cyclohexyl-amine], the melting point lay within 90 to 99 °C.

For the compound `Cc1ccc(Nc2cc(C)nc(-n3nc(C)cc3C)n2)cc1` [Compound B1, [2-(3,5-Dimethyl-pyrazol-1-yl)-6-methyl-pyrimidin-4-yl]-p-tolyl-amine], the melting point was in the range of 135.1 to 137.5 °C.

For the compound `Cc1cc(Nc2ccccc2)nc(-n2nc(C)cc2C)n1` [Compound B2, [2-(3,5-Dimethyl-pyrazol-1-yl)-6-methyl-pyrimidin-4-yl]-phenyl-amine], the melting point is 134.5 to 138.8 °C.

Compound `Cc1cc(Nc2ccc(Cl)cc2)nc(-n2nc(C)cc2C)n1` [Compound B3, (4-Chloro-phenyl)-[2-(3,5-dimethyl-pyrazol-1-yl)-6-methyl-pyrimidin-4-yl]-amine] came in with a melting point of 181 to 183.2 °C.

`Cc1cc(Nc2ccc(Cl)c(Cl)c2)nc(-n2nc(C)cc2C)n1` [Compound B4, (3,4-Dichloro-phenyl)-[2-(3,5-dimethyl-pyrazol-1-yl)-6-methyl-pyrimidin-4-yl]-amine]: the melting point is 135.3 to 137.8 °C.

Turning to `Cc1cc(Nc2cccc(C(F)(F)F)c2)nc(-n2nc(C)cc2C)n1` [Compound B6, [2-(3,5-Dimethyl-pyrazol-1-yl)-6-methyl-pyrimidin-4-yl]-(3-trifluoromethyl-phenyl)-amine], the melting point fell in the range of 130.5 to 133.6 °C.

On to `Cc1cc(C)n(-c2nccc(Nc3cccc(C(F)(F)F)c3)n2)n1` [Compound B8, [2-(3,5-Dimethyl-pyrazol-1-yl)-pyrimidin-4-yl]-(3-trifluoromethyl-phenyl)-amine], for which the melting point fell in the range of 98.5 to 99.6 °C.

For `Cc1cc(C)n(-c2nccc(Nc3ccc(Cl)cc3)n2)n1` [Compound B9, (4-Chloro-phenyl)-[2-(3,5-dimethyl-pyrazol-1-yl)-pyrimidin-4-yl]-amine], the melting point fell in the range of 135.5 to 140 °C.

Consider `Cc1cc(C)n(-c2ncc(Br)c(Nc3ccc(Cl)cc3)n2)n1` [Compound B10, [5-Bromo-2-(3,5-dimethyl-pyrazol-1-yl)-pyrimidin-4-yl]-(4-chloro-phenyl)-amine], for which the melting point lay in the range of 144.5 to 154 °C.

For the compound `Cc1ccc(Nc2ccnc(-n3nc(C)cc3C)n2)cc1` [Compound B11, [2-(3,5-Dimethyl-pyrazol-1-yl)-pyrimidin-4-yl]-p-tolyl-amine], the melting point fell in the range of 52 to 55.6 °C.

`Cc1cc(C)n(-c2ncc(C)c(Nc3ccc(Cl)cc3)n2)n1` [Compound B12, (4-Chloro-phenyl)-[2-(3,5-dimethyl-pyrazol-1-yl)-5-methyl-pyrimidin-4-yl]-amine]: the melting point is 179.2 to 182.3 °C.
